In patent publication US4431815A, “1-[3-(2,4-Dichlorophenyl)propyl]imidazole and salts thereof” (Burroughs Wellcome Co., priority 1983, dated 1984):
Like-named read-outs stand apart in the source and are kept apart here.

What was measured:
PGE, PGF and PGD = experiment: Selectivity: amount of PGE, PGF and PGD produced (anti-aggregating prostaglandins), horse platelets; assay type: biochemical; settings: horse platelet homogenate
Description: Horse platelets were prepared from whole horse blood by differential centrifugation. Approximately 10^6 platelets were homogenised in 1 ml 100 mM Tris buffer pH 7.4. […] To each tube was added 20 nM of arachidonic acid containing 10^6 DPM of labelled arachidonic acid and the tubes incubated for 3 minutes at 37° C. in a shaking water bath. After incubation the radioactive products were extracted from the acidified aqueous phase with ethyl acetate and after concentration resolved by thin layer chromatography on silica gel with chloroform/methanol/acetic acid/water (90:8:1:0.8) as a developing solvent. The amount of thromboxane produced was measured by scraping off the radioactive zone corresponding to thromboxane B2 and estimating the radioactivity in a liquid scintillation counter.
The greater the selectivity, the more of the anti-aggregating prostaglandins are produced.
The ED50 and Selectivity results are shown in Table A in which 0 indicates no selectivity; + low selectivity: ++ medium selectivity; +++ high selectivity, and ++++ exceptionally high selectivity.

platelet clumps = experiment: Disaggregation of platelet clumps
platelet aggregation = experiment: Inhibition of platelet aggregation in vivo
TXA2 synthetase = biological target: T1, TXA2 synthetase (Equus caballus, UniProt A0A9L0T8T9); experiment: Inhibition of thromboxane (TXA2) synthetase in homogenised horse platelets, labelled arachidonic acid, thromboxane B2 measured by TLC; assay type: biochemical; settings: horse platelet homogenate, pH 7.4
T1 construct: labelled arachidonic acid substrate, thromboxane B2 measured by TLC
T1 sequence (A0A9L0T8T9 2-534): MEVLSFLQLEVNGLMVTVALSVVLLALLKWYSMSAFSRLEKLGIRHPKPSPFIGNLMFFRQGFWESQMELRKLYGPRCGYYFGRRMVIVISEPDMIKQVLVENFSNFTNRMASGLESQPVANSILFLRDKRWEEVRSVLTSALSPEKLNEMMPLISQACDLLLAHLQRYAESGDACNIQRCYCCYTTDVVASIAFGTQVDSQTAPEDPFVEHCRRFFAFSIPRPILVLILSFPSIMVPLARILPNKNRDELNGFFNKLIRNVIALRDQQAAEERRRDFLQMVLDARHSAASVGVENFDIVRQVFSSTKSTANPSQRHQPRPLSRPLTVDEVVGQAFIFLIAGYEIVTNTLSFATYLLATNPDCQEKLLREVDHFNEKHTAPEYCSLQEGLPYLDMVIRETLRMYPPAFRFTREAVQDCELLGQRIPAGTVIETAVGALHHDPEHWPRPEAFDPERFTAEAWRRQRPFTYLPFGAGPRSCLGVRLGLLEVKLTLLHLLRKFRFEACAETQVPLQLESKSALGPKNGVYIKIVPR
Description: Horse platelets were prepared from whole horse blood by differential centrifugation. Approximately 10^6 platelets were homogenised in 1 ml 100 mM Tris buffer pH 7.4. Various concentrations of active compound were added and the reaction sets incubated for 5 minutes at ambient temperature. To each tube was added 20 nM of arachidonic acid containing 10^6 DPM of labelled arachidonic acid and the tubes incubated for 3 minutes at 37° C. in a shaking water bath. After incubation the radioactive products were extracted from the acidified aqueous phase with ethyl acetate and after concentration resolved by thin layer chromatography on silica gel with chloroform/methanol/acetic acid/water (90:8:1:0.8) as a developing solvent. The amount of thromboxane produced was measured by scraping off the radioactive zone corresponding to thromboxane B2 and estimating the radioactivity in a liquid scintillation counter.
The concentration of active compound to reduce the enzyme activity by 50% (ED50) was established.
By the method of Biological results Example 7 above the ED50 and selectivity values were obtained for the compounds set out in Table B.

[1] = system: enzymic conversion of the endoperoxides (PGG2 and PGH2) to thromboxane A2 by platelet microsomes; settings: Moncada et al., Prostaglandins 1977; cited from earlier work
[2] = Table B, read-out: ED50 (concentration of active compound to reduce the enzyme activity by 50%) (converted)

Row | Compound | SELECTIVITY (PGE, PGF and PGD; Table B) | IC50 (TXA2 synthetase; [2]) [µM] | other results
1 | Clc1ccc(C=CCn2ccnc2)c(Cl)c1 [1-[3-(2,4-Dichlorophenyl)prop-2-enyl]imidazole] |  |  | SELECTIVITY (PGE, PGF and PGD; Table A): +
2 | Cc1cc(C)c(Cn2ccnc2)c(C)c1 [1-(2,4,6-Trimethylbenzyl)imidazole, 1-(2,4,6-trimethylbenzyl)imidazole] |  |  | disaggregating platelet clumps (platelet clumps): capable of disaggregating platelet clumps; SELECTIVITY (PGE, PGF and PGD; Table A): ++; inhibiting platelet aggregation in vivo (platelet aggregation): capable of inhibiting platelet aggregation in vivo
3 | c1ccc(CCn2ccnc2)cc1 [1-(2-phenylethyl)imidazole, 1-(2-Phenylethyl)imidazole] | + | 116 | 
4 | CC(C)c1ccc(Cn2ccnc2)cc1 [1-(4-i-propylbenzyl)imidazole, 1-(4-i-Propylbenzyl)imidazole] | 0 | 0.499 | 
5 | C(=Cc1ccccc1)Cn1ccnc1 [1-(3-phenylprop-2-enyl)imidazole, 1-(3-Phenylprop-2-enyl)imidazole] |  | 92.3 | 
6 | Brc1cccc(Cn2ccnc2)c1 [1-(3-bromobenzyl)imidazole, 1-(3-Bromobenzyl)imidazole] | +++ | 61.2 | 
7 | Fc1ccc(Cn2ccnc2)cc1 [1-(4-fluorobenzyl)imidazole, 1-(4-Fluorobenzyl)imidazole] |  | 159 | 
8 | Clc1cccc(Cl)c1C=CCn1ccnc1 [1-[3-(2,6-Dichlorophenyl)prop-2-enyl]imidazole] |  |  | SELECTIVITY (PGE, PGF and PGD; Table A): +
9 | c1c[nH]cn1 [Imidazole] |  |  | inhibition of the enzymic conversion of endoperoxides to thromboxane A2 [1]: some degree of inhibition
10 | Nc1cccc(Cn2ccnc2)c1 [1-(3-aminobenzyl)imidazole, 1-(3-Aminobenzyl)imidazole] | ++ | ~57.7 | 
11 | Cn1ccnc1 [1-methylimidazole] |  |  | inhibition of the enzymic conversion of endoperoxides to thromboxane A2 [1]: some degree of inhibition
12 | Clc1ccccc1Cn1ccnc1 [1-(2-chlorobenzyl)imidazole] | ++ | 2.6 | 
13 | Cc1cccc(-n2ccnc2)c1C [1-(2,3-dimethylphenyl)imidazole] | ++ | ~17.4 | 
14 | Cc1ccc(Cn2ccnc2)cc1C [1-(3,4-Dimethylbenzyl)imidazole] |  |  | SELECTIVITY (PGE, PGF and PGD; Table A): ++
15 | CC(Cn1ccnc1)c1ccccc1 (stereo not drawn) [1-(2-phenylpropyl)imidazole, 1-(2-Phenylpropyl)imidazole] |  | < 26.8 | 
16 | O=[N+]([O-])c1cccc(Cn2ccnc2)c1 [1-(3-nitrobenzyl)imidazole, 1-(3-Nitrobenzyl)imidazole] |  | 271 | 
17 | c1ccc(CCCn2ccnc2)cc1 [1-(3-phenylpropyl)imidazole, 1-(3-Phenylpropyl)imidazole] | + | 134 | 
18 | Cc1ccc(Cn2ccnc2)cc1 [1-(4-methylbenzyl)imidazole, 1-(4-Methylbenzyl)imidazole] | + | 174 | 
19 | Clc1ccc(CCCn2ccnc2)c(Cl)c1 [1-[3-(2,4-Dichlorophenyl)propyl]imidazole] | ++ | 2.35 | disaggregating platelet clumps (platelet clumps): capable of disaggregating platelet clumps; SELECTIVITY (PGE, PGF and PGD; Table A): ++; inhibiting platelet aggregation in vivo (platelet aggregation): capable of inhibiting platelet aggregation in vivo; IC50 (TXA2 synthetase; Table A, read-out: ED50 (concentration of active compound to reduce the enzyme activity by 50%) (converted)): 1.96 µM
20 | c1ccc(Cn2ccnc2)cc1 [1-benzylimidazole, 1-Benzylimidazole] | +++ |  | disaggregating platelet clumps (platelet clumps): capable of disaggregating platelet clumps; inhibiting platelet aggregation in vivo (platelet aggregation): capable of inhibiting platelet aggregation in vivo; IC50 (TXA2 synthetase; read-out: ED50 (concentration of active compound to reduce the enzyme activity by 50%), Table B): 31.6 µM
21 | Brc1ccc(Cn2ccnc2)cc1 [1-(4-bromobenzyl)imidazole, 1-(4-Bromobenzyl)imidazole] |  | 19.4 | 
22 | Clc1ccc(Cn2ccnc2)c(Cl)c1 [1-(2,4-dichlorobenzyl)imidazole, 1-(2,4-Dichlorobenzyl)imidazole] |  | 8.81 to 35.2 | disaggregating platelet clumps (platelet clumps): capable of disaggregating platelet clumps; inhibiting platelet aggregation in vivo (platelet aggregation): capable of inhibiting platelet aggregation in vivo
